Blank lines part the entries; values can stand above or below the compound they belong to.
How the values were obtained:
[1] = biological target: Insulin-like growth factor 1 receptor (Homo sapiens, UniProt P08069); assay: Inhibition of IGF-1 receptor (unknown origin)
[2] = test system: Liver microsome; assay: Drug level in human liver microsomes treated with NVP-AEW541 by LC-MS/MS analysis; type: ADME
[3] = biological target: Insulin receptor (Homo sapiens, UniProt P06213); assay: Inhibition of Ins receptor (unknown origin)
[4] = Solubility of compound in water; type: physicochemical; settings: buffer
[5] = biological target: Proto-oncogene tyrosine-protein kinase receptor Ret (Homo sapiens, UniProt P07949); assay: Inhibition of Ret (unknown origin)
[6] = biological target: Tyrosine-protein kinase JAK1 (Homo sapiens, UniProt P23458); assay: Inhibition of Jak1 (unknown origin)
Chain of Tyrosine-protein kinase JAK1 (P23458 whole entry): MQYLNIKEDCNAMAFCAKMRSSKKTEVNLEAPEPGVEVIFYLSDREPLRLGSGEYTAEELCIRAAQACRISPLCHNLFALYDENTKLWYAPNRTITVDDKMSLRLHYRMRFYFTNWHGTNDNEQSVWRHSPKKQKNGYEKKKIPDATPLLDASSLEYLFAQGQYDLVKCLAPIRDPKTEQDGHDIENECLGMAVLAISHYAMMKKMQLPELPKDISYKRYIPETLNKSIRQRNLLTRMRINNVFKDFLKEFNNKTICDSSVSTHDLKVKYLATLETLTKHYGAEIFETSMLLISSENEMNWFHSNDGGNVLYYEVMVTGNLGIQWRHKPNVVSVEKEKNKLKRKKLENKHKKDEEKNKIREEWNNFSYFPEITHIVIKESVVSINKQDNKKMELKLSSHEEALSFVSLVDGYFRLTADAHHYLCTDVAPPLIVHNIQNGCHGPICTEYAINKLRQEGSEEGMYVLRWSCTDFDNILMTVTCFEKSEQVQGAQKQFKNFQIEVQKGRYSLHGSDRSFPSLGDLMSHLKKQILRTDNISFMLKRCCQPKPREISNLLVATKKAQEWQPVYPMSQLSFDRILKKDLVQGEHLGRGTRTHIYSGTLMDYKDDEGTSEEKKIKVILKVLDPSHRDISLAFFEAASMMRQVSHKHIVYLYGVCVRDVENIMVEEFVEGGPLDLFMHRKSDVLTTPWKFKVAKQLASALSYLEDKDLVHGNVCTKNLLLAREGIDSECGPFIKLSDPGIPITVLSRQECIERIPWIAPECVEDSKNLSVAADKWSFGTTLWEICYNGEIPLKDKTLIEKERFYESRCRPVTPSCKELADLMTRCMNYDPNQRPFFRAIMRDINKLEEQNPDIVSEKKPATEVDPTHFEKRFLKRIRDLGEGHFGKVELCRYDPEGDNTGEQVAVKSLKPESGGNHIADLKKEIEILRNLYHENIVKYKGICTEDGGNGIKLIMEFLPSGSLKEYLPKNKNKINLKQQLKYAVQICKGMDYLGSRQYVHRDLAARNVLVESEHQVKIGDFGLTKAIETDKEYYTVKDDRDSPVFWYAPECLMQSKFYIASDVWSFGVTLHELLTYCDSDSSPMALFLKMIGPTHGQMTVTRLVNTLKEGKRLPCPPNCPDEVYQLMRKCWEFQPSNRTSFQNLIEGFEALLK

[7] = biological target: Vascular endothelial growth factor receptor 2 (Homo sapiens, UniProt P35968); assay: Inhibition of KDR (unknown origin)
[8] = biological target: Epidermal growth factor receptor (Homo sapiens, UniProt P00533); assay: Inhibition of Her1 (unknown origin)
Chain of Epidermal growth factor receptor (P00533 whole entry): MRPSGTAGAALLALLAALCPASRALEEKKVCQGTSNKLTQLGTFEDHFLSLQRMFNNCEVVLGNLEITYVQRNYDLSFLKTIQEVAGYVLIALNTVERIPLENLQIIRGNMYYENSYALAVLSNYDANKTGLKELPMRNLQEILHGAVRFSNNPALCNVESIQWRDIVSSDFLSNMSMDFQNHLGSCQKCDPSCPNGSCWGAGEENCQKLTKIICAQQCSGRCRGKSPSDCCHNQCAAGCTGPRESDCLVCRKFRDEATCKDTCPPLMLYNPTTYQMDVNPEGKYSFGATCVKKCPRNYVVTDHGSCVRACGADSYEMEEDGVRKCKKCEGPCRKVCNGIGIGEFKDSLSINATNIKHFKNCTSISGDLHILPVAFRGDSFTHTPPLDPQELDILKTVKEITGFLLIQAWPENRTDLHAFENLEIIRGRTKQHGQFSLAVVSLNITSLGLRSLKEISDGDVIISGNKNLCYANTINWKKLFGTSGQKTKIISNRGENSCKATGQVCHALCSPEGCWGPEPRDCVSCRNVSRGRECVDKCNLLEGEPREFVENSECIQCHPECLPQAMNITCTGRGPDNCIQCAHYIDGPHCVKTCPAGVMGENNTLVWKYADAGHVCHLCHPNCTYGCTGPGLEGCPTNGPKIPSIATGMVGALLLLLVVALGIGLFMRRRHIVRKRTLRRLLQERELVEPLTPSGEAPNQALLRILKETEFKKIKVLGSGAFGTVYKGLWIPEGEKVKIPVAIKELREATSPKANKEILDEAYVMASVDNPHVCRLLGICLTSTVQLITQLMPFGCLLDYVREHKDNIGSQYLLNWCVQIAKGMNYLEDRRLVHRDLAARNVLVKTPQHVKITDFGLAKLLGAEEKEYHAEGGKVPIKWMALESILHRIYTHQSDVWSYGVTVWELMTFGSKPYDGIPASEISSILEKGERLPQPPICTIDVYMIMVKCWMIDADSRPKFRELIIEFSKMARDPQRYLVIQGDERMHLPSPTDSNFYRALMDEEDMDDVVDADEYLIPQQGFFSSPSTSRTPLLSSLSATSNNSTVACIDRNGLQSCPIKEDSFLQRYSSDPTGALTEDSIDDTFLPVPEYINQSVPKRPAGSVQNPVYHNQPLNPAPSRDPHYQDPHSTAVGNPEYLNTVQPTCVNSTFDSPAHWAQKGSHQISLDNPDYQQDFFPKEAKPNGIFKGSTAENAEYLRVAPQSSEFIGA

[9] = biological target: Tyrosine-protein kinase Lck (Homo sapiens, UniProt P06239); assay: Inhibition of Lck (unknown origin)
[10] = biological target: T1, Ephrin type-B receptor 4 (Homo sapiens, UniProt P54760); assay: Inhibition of EphB4 receptor (unknown origin)
T1 sequence (P54760 whole entry): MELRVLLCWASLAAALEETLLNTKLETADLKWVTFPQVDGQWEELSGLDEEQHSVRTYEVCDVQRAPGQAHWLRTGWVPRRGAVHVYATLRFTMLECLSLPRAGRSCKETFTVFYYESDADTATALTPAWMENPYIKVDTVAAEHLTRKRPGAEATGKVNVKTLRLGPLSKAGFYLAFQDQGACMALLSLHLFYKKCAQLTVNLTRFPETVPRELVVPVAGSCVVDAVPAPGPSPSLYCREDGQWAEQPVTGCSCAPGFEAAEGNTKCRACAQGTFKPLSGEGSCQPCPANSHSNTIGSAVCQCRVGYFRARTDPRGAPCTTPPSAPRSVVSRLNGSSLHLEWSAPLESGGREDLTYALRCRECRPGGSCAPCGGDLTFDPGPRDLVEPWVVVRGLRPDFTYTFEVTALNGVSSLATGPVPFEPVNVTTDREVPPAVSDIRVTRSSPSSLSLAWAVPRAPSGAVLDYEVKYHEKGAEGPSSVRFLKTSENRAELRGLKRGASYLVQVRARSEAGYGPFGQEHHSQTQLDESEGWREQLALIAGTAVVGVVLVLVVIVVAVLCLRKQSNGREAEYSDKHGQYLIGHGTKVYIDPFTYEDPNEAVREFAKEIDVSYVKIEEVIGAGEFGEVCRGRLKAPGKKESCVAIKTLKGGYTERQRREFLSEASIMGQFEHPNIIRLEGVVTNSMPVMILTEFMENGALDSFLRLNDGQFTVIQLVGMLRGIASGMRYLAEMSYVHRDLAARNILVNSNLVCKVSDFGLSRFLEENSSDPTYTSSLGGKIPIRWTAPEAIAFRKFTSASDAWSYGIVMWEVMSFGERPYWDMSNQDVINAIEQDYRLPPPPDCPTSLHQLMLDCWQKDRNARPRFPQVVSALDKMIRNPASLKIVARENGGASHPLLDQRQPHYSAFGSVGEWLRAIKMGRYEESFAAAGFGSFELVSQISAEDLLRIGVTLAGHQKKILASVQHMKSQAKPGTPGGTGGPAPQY

[11] = biological target: Cytochrome P450 2C9 (Homo sapiens, UniProt P11712); assay: Effect on human CYP2C9 at 10 uM; type: ADME
[12] = biological target: Phosphatidylinositol 4,5-bisphosphate 3-kinase catalytic subunit alpha isoform (Homo sapiens, UniProt P42336); assay: Inhibition of PI3K-alpha (unknown origin)
Chain of Phosphatidylinositol 4,5-bisphosphate 3-kinase catalytic subunit alpha isoform (P42336 whole entry, canonical isoform): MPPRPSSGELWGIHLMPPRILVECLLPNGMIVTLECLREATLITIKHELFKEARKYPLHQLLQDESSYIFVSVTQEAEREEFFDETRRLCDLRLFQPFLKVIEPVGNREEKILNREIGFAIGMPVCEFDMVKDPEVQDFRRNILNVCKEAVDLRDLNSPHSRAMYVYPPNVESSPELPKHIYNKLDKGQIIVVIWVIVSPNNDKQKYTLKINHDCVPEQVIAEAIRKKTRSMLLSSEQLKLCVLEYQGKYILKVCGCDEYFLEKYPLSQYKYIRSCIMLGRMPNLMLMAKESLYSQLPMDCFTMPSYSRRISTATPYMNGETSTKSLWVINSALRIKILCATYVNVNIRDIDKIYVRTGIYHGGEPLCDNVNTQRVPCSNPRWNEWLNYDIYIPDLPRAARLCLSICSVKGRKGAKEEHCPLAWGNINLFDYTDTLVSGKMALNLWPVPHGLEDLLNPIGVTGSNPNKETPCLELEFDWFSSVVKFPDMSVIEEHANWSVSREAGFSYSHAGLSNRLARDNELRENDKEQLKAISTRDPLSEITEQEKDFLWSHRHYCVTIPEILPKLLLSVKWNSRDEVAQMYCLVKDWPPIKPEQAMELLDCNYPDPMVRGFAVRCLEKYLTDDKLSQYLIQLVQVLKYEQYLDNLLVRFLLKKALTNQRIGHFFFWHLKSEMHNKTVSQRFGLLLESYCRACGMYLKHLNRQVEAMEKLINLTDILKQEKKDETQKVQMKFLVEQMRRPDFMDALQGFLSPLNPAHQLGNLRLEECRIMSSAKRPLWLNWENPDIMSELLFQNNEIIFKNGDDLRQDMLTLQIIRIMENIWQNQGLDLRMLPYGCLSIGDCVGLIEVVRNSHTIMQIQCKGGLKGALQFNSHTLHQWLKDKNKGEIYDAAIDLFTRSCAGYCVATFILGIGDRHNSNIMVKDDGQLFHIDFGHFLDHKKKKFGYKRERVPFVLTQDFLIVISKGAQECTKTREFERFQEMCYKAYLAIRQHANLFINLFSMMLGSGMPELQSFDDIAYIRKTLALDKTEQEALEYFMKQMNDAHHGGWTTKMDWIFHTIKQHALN

[13] = biological target: Phosphatidylinositol 4,5-bisphosphate 3-kinase catalytic subunit beta isoform (Homo sapiens, UniProt P42338); assay: Inhibition of PI3K-beta (unknown origin)
[14] = biological target: Cytochrome P450 2D6 (Homo sapiens, UniProt P10635); assay: Effect on human CYP2D6 at 10 uM; type: ADME
[15] = Permeability of compound at >= pH 7 by PAMPA assay; type: ADME
[16] = biological target: Cytochrome P450 3A4 (Homo sapiens, UniProt P08684); assay: Effect on human CYP3A4 at 10 uM; type: ADME
[17] = test system: Liver microsome; assay: Drug metabolism in human liver microsomes assessed as 3-(4-amino-7-((cis)-3-(azetidin-1-ylmethyl)cyclobutyl)-7H-pyrrolo[2,3-d]pyrimidin-5-yl)phenol formation by LC-MS/MS analysis; type: ADME
[18] = biological target: Voltage-gated inwardly rectifying potassium channel KCNH2 (Homo sapiens, UniProt Q12809); assay: Inhibition of human ERG by dofetilide binding assay

Chain of Insulin-like growth factor 1 receptor (P08069 31-736 limits assumed): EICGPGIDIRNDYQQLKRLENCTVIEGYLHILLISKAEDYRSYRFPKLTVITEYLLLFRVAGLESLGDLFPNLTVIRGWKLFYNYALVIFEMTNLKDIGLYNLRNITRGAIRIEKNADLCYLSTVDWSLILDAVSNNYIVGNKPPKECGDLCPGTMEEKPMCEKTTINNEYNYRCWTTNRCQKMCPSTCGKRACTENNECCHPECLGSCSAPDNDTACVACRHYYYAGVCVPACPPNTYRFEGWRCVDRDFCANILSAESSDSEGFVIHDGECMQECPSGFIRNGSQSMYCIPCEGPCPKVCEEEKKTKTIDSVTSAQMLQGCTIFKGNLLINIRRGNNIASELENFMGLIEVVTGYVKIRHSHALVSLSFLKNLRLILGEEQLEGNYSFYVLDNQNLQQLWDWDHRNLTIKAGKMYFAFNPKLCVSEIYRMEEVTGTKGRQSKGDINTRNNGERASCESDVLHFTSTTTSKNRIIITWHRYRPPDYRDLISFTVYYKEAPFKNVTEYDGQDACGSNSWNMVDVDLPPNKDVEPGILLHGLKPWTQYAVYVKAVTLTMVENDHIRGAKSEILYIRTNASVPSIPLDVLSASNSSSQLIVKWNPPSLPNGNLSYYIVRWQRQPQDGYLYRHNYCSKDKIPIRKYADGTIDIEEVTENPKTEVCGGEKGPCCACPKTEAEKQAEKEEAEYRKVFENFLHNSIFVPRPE
Chain of Insulin-like growth factor 1 receptor (P08069 741-1367 limits assumed): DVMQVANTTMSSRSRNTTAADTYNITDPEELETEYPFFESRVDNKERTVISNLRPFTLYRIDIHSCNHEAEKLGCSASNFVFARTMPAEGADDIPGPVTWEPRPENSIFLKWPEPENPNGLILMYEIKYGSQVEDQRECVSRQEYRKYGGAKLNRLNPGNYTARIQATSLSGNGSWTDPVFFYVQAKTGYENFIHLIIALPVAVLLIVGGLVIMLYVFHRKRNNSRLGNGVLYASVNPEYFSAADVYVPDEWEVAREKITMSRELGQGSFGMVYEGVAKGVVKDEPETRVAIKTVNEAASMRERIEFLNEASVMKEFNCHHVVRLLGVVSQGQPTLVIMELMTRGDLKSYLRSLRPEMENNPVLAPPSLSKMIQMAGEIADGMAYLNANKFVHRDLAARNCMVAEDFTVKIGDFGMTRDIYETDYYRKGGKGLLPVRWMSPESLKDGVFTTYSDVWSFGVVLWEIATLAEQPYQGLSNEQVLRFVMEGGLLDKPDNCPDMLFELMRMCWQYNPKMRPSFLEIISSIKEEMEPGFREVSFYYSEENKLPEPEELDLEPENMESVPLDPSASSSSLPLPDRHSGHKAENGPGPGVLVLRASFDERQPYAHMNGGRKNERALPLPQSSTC

Structure (SMILES): CC(C)OCCOc1cccc(-c2cn([C@H]3C[C@@H](CN4CCC4)C3)c3ncnc(N)c23)c1
- IC50 [1]: 260 nM

Structure (SMILES): CC(C)CCOCCOc1cccc(-c2cn([C@H]3C[C@@H](CN4CCC4)C3)c3ncnc(N)c23)c1
- IC50 [1]: 370 nM

Structure (SMILES): Nc1ncnc2c1c(-c1cccc(O)c1)cn2[C@H]1C[C@@H](CN2CCC2)C1
- Drug metabolism [2]: metabolite_detected

Structure (SMILES): COCCOc1cccc(-c2cn([C@H]3C[C@@H](CN4CCC4)C3)c3ncnc(N)c23)c1
- IC50 [1]: 2000 nM

Structure (SMILES): CCOCCOc1cccc(-c2cn([C@H]3C[C@@H](CN4CCC4)C3)c3ncnc(N)c23)c1
- IC50 [1]: 630 nM

Structure (SMILES): Nc1ncnc2c1c(-c1cccc(OCc3ccccc3)c1)cn2[C@H]1C[C@@H](CN2CCC2)C1
- Drug metabolism [17]: metabolite_detected
- IC50 [6]: > 10000 nM
- IC50 [8]: > 10000 nM
- IC50 [18]: 130 nM
- IC50 [12]: > 9000 nM
- IC50 [13]: > 9000 nM

Structure (SMILES): CCCOCCOc1cccc(-c2cn([C@H]3C[C@@H](CN4CCC4)C3)c3ncnc(N)c23)c1
- IC50 [1]: 310 nM

Structure (SMILES): CC(Oc1cccc(-c2cn([C@H]3C[C@@H](CN4CCC4)C3)c3ncnc(N)c23)c1)c1ccccc1 (mixture of isomers)
- IC50 [1]: 3700 nM

Structure (SMILES): Nc1ncnc2c1c(-c1cccc(OCCO)c1)cn2[C@H]1C[C@@H](CN2CCC2)C1
- IC50 [1]: 7900 nM

Structure (SMILES): Nc1ncnc2c1c(-c1cccc(OCC3CCC3)c1)cn2[C@H]1C[C@@H](CN2CCC2)C1
- IC50 [1]: 1900 nM

Structure (SMILES): Nc1ncnc2c1c(-c1cccc(OCCOC3CCCC3)c1)cn2[C@H]1C[C@@H](CN2CCC2)C1
- IC50 [1]: 490 nM

Structure (SMILES): Nc1ncnc2c1c(-c1cccc(OCC3CCCC3)c1)cn2[C@H]1C[C@@H](CN2CCC2)C1
- IC50 [1]: 840 nM

Structure (SMILES): Nc1ncnc2c1c(-c1cccc(OCC3CCCCC3)c1)cn2[C@H]1C[C@@H](CN2CCC2)C1
- IC50 [1]: 550 nM

The remaining compounds from weak to strong by IC50 [1], led by results:

- IC50 [1]: 160 nM
Structure (SMILES): CC(C)(C)OCCOc1cccc(-c2cn([C@H]3C[C@@H](CN4CCC4)C3)c3ncnc(N)c23)c1

- IC50 [1]: 130 nM
Structure (SMILES): Nc1ncnc2c1c(-c1cccc(OC[C@@H]3CCCCO3)c1)cn2[C@H]1C[C@@H](CN2CCC2)C1

- IC50 [1]: 110 nM
Structure (SMILES): Nc1ncnc2c1c(-c1cccc(OC[C@H]3CCCO3)c1)cn2[C@H]1C[C@@H](CN2CCC2)C1

- IC50 [6]: > 10000 nM
- IC50 [8]: > 10000 nM
- IC50 [12]: > 9000 nM
- IC50 [13]: > 9000 nM
- IC50 [1]: 80 nM
Structure (SMILES): Nc1ncnc2c1c(-c1cccc(OC[C@@H]3CCCO3)c1)cn2[C@H]1C[C@@H](CN2CCC2)C1
- IC50 [18]: 3600 nM

- Drug metabolism [17]: metabolite_notdetected
- IC50 [1]: 80 nM
Structure (SMILES): Nc1ncnc2c1c(-c1cccc(OC[C@H]3CCCCO3)c1)cn2[C@H]1C[C@@H](CN2CCC2)C1

- IC50 [1]: 60 nM
Structure (SMILES): CC1(C)CC[C@H](COc2cccc(-c3cn([C@H]4C[C@@H](CN5CCC5)C4)c4ncnc(N)c34)c2)O1

- IC50 [3]: 100 nM
- solubility [4]: soluble
- IC50 [5]: 970 nM
- IC50 [6]: > 10000 nM
- IC50 [7]: > 10000 nM
- IC50 [8]: > 10000 nM
- IC50 [9]: 7400 nM
- IC50 [10]: 690 nM
- Activity [11]: Not Active
- IC50 [12]: > 9000 nM
- IC50 [13]: > 9000 nM
- Activity [14]: Not Active
- IC50 [1]: 9 nM
- permeability [15]: permeable
- Activity [16]: Not Active
Structure (SMILES): CC1(C)CC[C@@H](COc2cccc(-c3cn([C@H]4C[C@@H](CN5CCC5)C4)c4ncnc(N)c34)c2)O1
